US10328161B2, “Luciferin derivatives from bicyclic reactants and aminothiol derivatives and methods of use thereof” (The Regents of the University of California, priority 2012, dated 2019)

What was measured:
[1] = Concentration dependence of PCL-2 in aqueous solution; assay type: biochemical
Experimental: (§1) Millipore water was used to prepare all aqueous solutions. Luciferase (100 μg/mL) in 50 mM Tris buffer, pH 7.4, with 10 mM MgCl2, 0.1 mM ZnCl2, and 2 mM ATP was added to selectivity assay samples (described below) to determine the relative amount of luciferin formed during incubation. Measurements for bioluminescent assays were performed at 37° C. and were recorded using a Molecular Devices SpectraMax M2 plate reader (Sunnyvale, Calif.). Samples for bioluminescent measurements were placed in white, opaque 96-well plates, which were purchased from Corning Inc. (Corning, N.Y.). ATP was purchased from MP Biomedicals (Solon, Ohio) or Sigma-Aldrich (St. Louis, Mo.), and luciferase was purchased from Promega (Madison, Wis.). Caspase enzymes were purchased from Sigma-Aldrich (St. Louis, Mo.), and caspase inhibitors were purchased from MP Biomedicals (Solon, Ohio).
PCL-2 was incubated in Tris buffer (50 mM, pH 7.4) with various concentrations of H2O2 for 60 min prior to the addition of catalase (0.4 mg/mL), dithiothreitol (1 mM) and D-cysteine (20 μM). After an additional 15 min incubation, 100 μL of a Tris buffer (50 mM, pH 7.4) containing luciferase (100 μg/mL), 10 mM MgCl2, 0.1 mM ZnCl2, and 2 mM ATP was added to 100 μL of the PCL-2 solutions and the bioluminescent signal was detected.

PC3M-luc cells [2] = experiment: Concentration dependence of PCL-2 with PC3M-luc cells; assay type: cell-based; details: PCL-2 25 μM, D-cysteine 25 μM
Experimental: (§2) A Xenogen IVIS Spectrum instrument (Caliper Life Sciences, Hopkinton, Mass.) was used for bioluminescent imaging in all cellular experiments. PC3M-luc cells (kindly provided by Chris Contag, Stanford University) were cultured in Dulbecco's Modified Eagle Medium (DMEM) containing 10% Fetal Bovine Serum (FBS). Prior to assaying, cells were passed and plated (1.3-1.5×10^4 cells/well) in black 96-well plates with clear bottoms (Becton Dickinson and Company, Franklin Lakes, N.J.). Once the cells were ca. 95% confluent, reagents were added for bioluminescent assays.
The medium was removed from PC3M-luc cells prepared as described above, and PCL-2 (25 μM, 2.5% final DMSO concentration), D-cysteine (25 μM), and H2O2 (0-100 μM final concentrations) in DMEM (-FBS) were added. The plate was immediately imaged for 2 h to determine the peak bioluminescent signal produced from PCL-2.

[3] = Selectivity assay for PCL-2: response to H2O2; assay type: biochemical; details: PCL-2 5 μM, H2O2 100 μM, 5-60 min, then D-cysteine and luciferase
Experimental: as §1
(§3) Various ROS (100 μM) were administered to PCL-2 or HCBT (5 μM) in Tris buffer (50 mM, pH 7.4) with or without 10 mM MgCl2 and 0.1 mM ZnCl2. […] After an additional 15 min incubation, 100 μL of a Tris buffer (50 mM, pH 7.4) containing luciferase (100 μg/mL), 10 mM MgCl2, 0.1 mM ZnCl2, and 2 mM ATP was added to 100 μL of the PCL-2 or HCBT solutions and the bioluminescent signal was detected.

[4] = Exogenous H2O2 experiments in mice; assay type: in vivo
Source text: (§4) A Xenogen IVIS Spectrum instrument (Caliper Life Sciences, Hopkinton, Mass.) was used for bioluminescent imaging in all animal experiments. Mice were anesthetized prior to injection and during imaging via inhalation of isoflurane. Phosphate Buffered Saline (PBS) was purchased from Thermo Fisher Scientific (Waltham, Mass.), and saline (0.9%) was made from sodium chloride and Millipore water. Isoflurane was purchased from Phoenix Pharmaceuticals, Inc. (St. Joseph, Mo.), and pharmaceutical grade DMSO was purchased from Sigma-Aldrich (St. Louis, Mo.). Medical grade oxygen was purchased from Praxair (Danbury, Conn.).
(§5) FVB-luc^+ (FVB-Tg(CAG-luc,-GFP)L2G85Chco/J) mice were bred at UC Berkeley, and were single or group-housed on a 12:12 light-dark cycle at 22° C. with free access to food and water. All studies were approved and performed according to the guidelines of the Animal Care and Use Committee of the University of California, Berkeley.
Unshaven, male FVB-luc^+ mice were anesthetized with isoflurane and injected IP with a mixture of PCL-2 and D-cysteine (0.05 μmol each, in 50 μL of 1:1 DMSO:PBS), followed immediately by an IP injection of H2O2 (0-4.5 μmol in 100 μL of PBS). Control mice were injected IP with a mixture of HCBT and D-cysteine (0.01 μmol each, in 50 μL of 1:1 DMSO:PBS) immediately prior to H2O2 (4.5 μmol in 100 μL of PBS). Following injections, mice were imaged with an IVIS Spectrum.

[5] = Kinetic analysis of the PCL-2 and H2O2 reaction; assay type: physicochemical; details: PCL-2 10 μM, H2O2 1, 2.5 or 5 mM, Tris buffer pH 8.5
Experimental: H2O2 (1, 2.5, or 5 mM) was added to PCL-2 (10 μM) in Tris buffer (pH 8.5) and absorbance measurements were recorded every 15-30 seconds over 5-20 minutes to determine the second order rate constant for the reaction. Measurements were taken at pH 8.5 to distinguish the HCBT peak, which shifts from 321 nm to 379 nm when it is deprotonated, from the PCL-2 peak (321 nm).

[6] = Lipopolysaccharide inflammation model, H2O2 detection with PCL-2; assay type: in vivo, mice; details: LPS 3 mg/kg IP 6 h before PCL-2 and D-cysteine 0.05 μmol each
Source text: as §4, §5
Unshaven, female FVB-luc^+ mice, aged 2-5 months, were anesthetized with isoflurane and injected IP with lipopolysaccharides (LPS, 3 mg/kg in 50 μL of saline) or saline (50 μL). For studies with PCL-2 alone, mice were injected IP with either apocynin (10 mg/kg in 20 μL of DMSO) or DMSO (20 μL) 6 h after LPS injection. […]

[7] = Selectivity assay for PCL-2: panel of various ROS; assay type: biochemical
Experimental: as §1, §3

PC3M-luc cells [8] = experiment: Signal produced from endogenous L-cysteine in PC3M-luc cells; assay type: cell-based; details: HCBT alone 0-50 μM
Experimental: as §2
PC3M-luc cells prepared as described above were washed with HBSS (25 mM glucose) prior to addition of HCBT and D-cysteine (0-50 μM, 1% DMSO) or HCBT alone (0-50 μM, 1% DMSO) in HBSS (25 mM glucose). The plate was immediately imaged for 2 h to determine the peak bioluminescent signal produced.

FVB-luc^+ mice [9] = experiment: Signal produced from endogenous L-cysteine in mice; assay type: in vivo; details: HCBT 0.05 μmol IP without D-cysteine
Source text: as §4, §5
Unshaven, male FVB-luc+ mice were anesthetized with isoflurane and injected IP with D-cysteine (0.05 μmol, in 20 μL of PBS) or vehicle (20 μL PBS). After 2 min, mice were injected IP with HCBT (0.05 μmol in 50 μL of 1:1 DMSO:PBS). Following injections, mice were imaged with an IVIS Spectrum.

PC3M-luc cells [10] = experiment: Lifetime of HCBT and D-cysteine in PC3M-luc cells; assay type: cell-based; details: 100 μM, 30 min incubation, wash, complementary reagent after 0-60 min
Experimental: as §2
The medium was removed from PC3M-luc cells prepared as described above, and HCBT (100 μM, 1% DMSO) or D-cysteine (100 μM, 1% PBS) in DMEM (-FBS) was added. After a 30 min incubation, the HCBT or D-cysteine was removed, the cells were washed with DMEM (-FBS), and fresh DMEM was added. After 0, 15, 30, 45, or 60 min, the second component of luciferin, D-cysteine (100 μM final concentration, 1% PBS) or HCBT (100 μM final concentration, 1% DMSO) in HBSS (25 mM glucose) was added, and the plate was immediately imaged for 2 h to determine the peak bioluminescent signal produced.

PC3M-luc cells [11] = experiment: Comparison of in situ luciferin formation and luciferin in PC3M-luc cells (intact and lysed); assay type: cell-based
Experimental: as §2
PC3M-luc cells prepared as described above were washed with HBSS (25 mM glucose) prior to addition of HCBT and D-cysteine (0-500 μM, 1% DMSO) or luciferin (0-500 μM, 1% DMSO) in HBSS (25 mM glucose). For experiments with lysed cells, 100 μL Glo lysis buffer (Promega, Madison, Wis.) was incubated with the PC3M-luc cells for 5 min prior to addition of HCBT and D-cysteine or luciferin. The plates were immediately imaged for 2 h to determine the peak bioluminescent signal produced.

FVB-luc^+ mice [12] = experiment: Comparison of in situ luciferin formation and luciferin in mice; assay type: in vivo; details: 0.05 μmol luciferin IP
Source text: A Xenogen IVIS Spectrum instrument (Caliper Life Sciences, Hopkinton, Mass.) was used for bioluminescent imaging in all animal experiments. Mice were anesthetized prior to injection and during imaging via inhalation of isoflurane. Phosphate Buffered Saline (PBS) was purchased from Thermo Fisher Scientific (Waltham, Mass.), and saline (0.9%) was made from sodium chloride and Millipore water. Isoflurane was purchased from Phoenix Pharmaceuticals, Inc. (St. Joseph, Mo.), and pharmaceutical grade DMSO was purchased from Sigma-Aldrich (St. Louis, Mo.). Medical grade oxygen was purchased from Praxair (Danbury, Conn.). FVB-luc^+ (FVB-Tg(CAG-luc,-GFP)L2G85Chco/J) mice were bred at UC Berkeley, and were single or group-housed on a 12:12 light-dark cycle at 22° C. with free access to food and water. All studies were approved and performed according to the guidelines of the Animal Care and Use Committee of the University of California, Berkeley. Unshaven, male FVB-luc^+ mice were anesthetized with isoflurane and injected IP with D-[…].05 or 0.5 μmol, in 20 μL of PBS) or vehicle (20 μL PBS). After 2 min, mice were injected IP with HCBT (0.05 or 0.5 μmol in 50 μL of 1:1 DMSO:PBS) or luciferin (0.05 μmol in 50 μL of 1:1 DMSO:PBS). Following injections, mice were imaged with an IVIS Spectrum.

Compound: N#Cc1nc2ccc(OCc3ccc(B(O)O)cc3)cc2s1 [PCL-2, 4-((2-Cyanobenzo[d]thiazol-6-yloxy)methyl)phenylboronic acid]
- range of linear response to H2O2 ([1]; PCL-2 5 μM, 60 min, aqueous solution): 1-100 μM H2O2
- detection limit for H2O2 ([1]; in vitro summary statement): low micromolar
- range of linear response to H2O2 in cellulo (PC3M-luc cells [2]): 0-100 μM H2O2
- increase in bioluminescence in the presence of H2O2 [3]: ca. 50 fold
- Turn-on ([4]; H2O2 0.5 μmol, PCL-2 0.05 μmol): 2.8-fold
- detection limit for H2O2 in vivo ([4]; IP, FVB-luc^+ mice, optimized imaging conditions for each probe): ca. 0.5 μmol
- second-order rate constant k for the PCL-2 and H2O2 reaction [5]: 2.7 M⁻¹ s⁻¹
- turn-on in response to LPS stimulation [6]: ca. 3.7 fold
- response to other ROS ([7]; 5 μM probe, ROS 100 μM (TBHP, hypochlorite, NO, OH, OtBu, O2-)): negligible response

Compound: N#Cc1nc2ccc(O)cc2s1 [HCBT, 2-Cyano-6-hydroxybenzothiazole]
- bioluminescence from HCBT and endogenous L-cysteine compared to HCBT with D-cysteine (PC3M-luc cells [8]): negligible production of bioluminescence
- bioluminescent signal from HCBT and endogenous L-cysteine compared to D-cysteine present (FVB-luc^+ mice [9]): negligible
- cellular lifetime: signal as time between removal and addition of the complementary reagent increases (PC3M-luc cells [10]): decrease in luminescence
- permeability across the cell membrane compared to luciferin (PC3M-luc cells [11]; inferred from intact versus lysed PC3M-luc cells): increased permeability
- bioluminescence turn-on with the same panel of ROS ([7]; HCBT 5 μM, ROS 100 μM incl. H2O2, 60 min): no bioluminescence turn-on

Compound: O=C(O)[C@H]1CSC(c2nc3ccc(O)cc3s2)=N1 [luciferin]
- bioluminescent signal, luciferin versus HCBT/D-cysteine (PC3M-luc cells [11]; intact PC3M-luc cells, lower concentrations (0-500 μM range)): greater signal than HCBT/D-cysteine
- brightness of signal relative to 0.05 μmol HCBT/D-cysteine (FVB-luc^+ mice [12]): ca. 40 fold
